Results on 18 compounds are retold here after patent US20260042764A1, “COMPOSITIONS AND METHODS FOR INHIBITION OF KRAS” (TheRas, Inc., priority 2022, published 2026).

In one assay the test system is GP2d cells (KRAS G12D). The assay can be described thus: Cell-based pERK HTRF assay in GP2d cell (Biological Example 2). The conditions noted are these: GP2d, GP2d (KRAS G12D) cells. An outline of the steps:
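HTRF read-out of pERK (excitation 320 nm, emission 615 nm) after lysates sat 4–24 h at room temperature with Eu cryptate and d2 antibodies.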
A general note: Time-resolved FRET reads energy transfer from a long-lived donor to a nearby acceptor.

Assay [1] concerns the target T1, Avi-KRAS G12D (2-169) GTP/RAF1 RBD-3xFLAG (51-131) (Homo sapiens, UniProt P01116, G12D).
T1 construct: Avi-KRAS G12D (2-169)
The assay can be described thus: Raf1-KRAS G12D-GTP disruption HTRF assay (Biological Example 3). To be noted: KRAS G12D, GTP-loaded. Type of assay: binding. An outline of the steps:
(§1)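 An HTRF assay measured disruption of 50 nM Avi-KRAS (2-169)-GTP (WT, G12C, G12D or G12V) bound to RAF1 RBD-3xFLAG (51-131). Buffer was Tris pH 7.5 with 5 mM MgCl2 and 10% DMSO. Compounds (30–0.005 μM, 3-fold, 10 points) were incubated 1 h at room temperature, and activity is given as % of DMSO.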

In assay [2] the target is T2, Avi-KRAS G12C (2-169) GTP/RAF1 RBD-3xFLAG (51-131) (Homo sapiens, UniProt P01116, G12C).
T2 construct: Avi-KRAS G12C (2-169)
In words: Raf1-KRAS G12C-GTP disruption HTRF assay (Biological Example 3). Type of assay: binding. The conditions noted are these: KRAS G12C, GTP-loaded. An outline of the steps:
as §1

Assay [3] addresses T3, Avi-KRAS G12V (2-169) GTP/RAF1 RBD-3xFLAG (51-131) (Homo sapiens, UniProt P01116, G12V).
T3 construct: Avi-KRAS G12V (2-169)
In words: Raf1-KRAS G12V-GTP disruption HTRF assay (Biological Example 3). The format is binding. The conditions noted are these: KRAS G12V, GTP-loaded. The procedure, abridged: as §1

The target of assay [4] is T4, Avi-KRAS WT (2-169) GTP/RAF1 RBD-3xFLAG (51-131) (Homo sapiens, UniProt P01116).
T4 construct: Avi-KRAS WT (2-169)
In words: Raf1-KRAS WT-GTP disruption HTRF assay (Biological Example 3). The conditions noted are these: KRAS WT, GTP-loaded. Type of assay: binding. An outline of the steps:
as §1

In a further assay the test system is SW620 cells (KRAS G12V). In words: Cell-based pERK HTRF assay in SW620 cell (Biological Example 4). To be noted: Homo sapiens, SW-620, SW620 (KRAS G12V) cells. The procedure, abridged:
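SW620 seeded in RPMI/10% FBS, next day dosed 4 h (top 1 μM, half-log, 9 pts, 0.25% DMSO). Lysed, pERK by d2/Eu cryptate HTRF, 4–24 h RT, 615 nm read.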

pIC50: −log10 of the molar value.

T4 sequence (P01116 2-169 isoform P01116-2): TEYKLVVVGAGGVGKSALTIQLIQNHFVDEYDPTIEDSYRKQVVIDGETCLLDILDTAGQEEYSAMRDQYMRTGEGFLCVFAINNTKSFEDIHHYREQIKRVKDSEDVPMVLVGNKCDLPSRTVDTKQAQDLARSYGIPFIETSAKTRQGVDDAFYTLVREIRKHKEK
T2 sequence (P01116 2-169 isoform P01116-2 G12C): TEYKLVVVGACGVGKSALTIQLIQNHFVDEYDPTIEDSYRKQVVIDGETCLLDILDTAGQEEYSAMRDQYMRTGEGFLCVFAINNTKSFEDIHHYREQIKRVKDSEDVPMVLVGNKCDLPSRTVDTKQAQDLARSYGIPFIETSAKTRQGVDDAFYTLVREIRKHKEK
T1 sequence (P01116 2-169 isoform P01116-2 G12D): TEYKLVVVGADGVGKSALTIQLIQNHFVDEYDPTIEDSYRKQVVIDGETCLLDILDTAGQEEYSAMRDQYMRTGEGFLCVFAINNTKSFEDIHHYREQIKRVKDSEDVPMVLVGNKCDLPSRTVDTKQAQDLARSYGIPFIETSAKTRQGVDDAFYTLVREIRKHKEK
T3 sequence (P01116 2-169 isoform P01116-2 G12V): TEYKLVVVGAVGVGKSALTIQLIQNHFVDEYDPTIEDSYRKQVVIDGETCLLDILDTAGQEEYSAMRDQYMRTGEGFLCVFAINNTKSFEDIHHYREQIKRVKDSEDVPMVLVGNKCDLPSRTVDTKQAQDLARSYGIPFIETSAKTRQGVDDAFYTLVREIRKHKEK

For orientation: pIC50 means −log10 of the IC50, conventionally taken in molar units. High values mean a small IC50, low ones a large IC50. On to `CCN(c1nc(OC[C@@]23CCCN2C[C@H](F)C3)nc2c(F)c(-c3ccc(F)c4sc(N)c(C#N)c34)c(C(F)(F)F)cc12)[C@H]1C[C@H](C)N(C(=O)C2CC2(F)F)C1` (stereo partly drawn) [Compound 881], for which the pIC50 is over 7.00 with GP2d cells (KRAS G12D); 6.00 to 7.00 in assay [1]; 6.00 to 7.00 in assay [2]; 6.00 to 7.00 in assay [3]; 6.00 to 7.00 in assay [4]; over 7.00 in the assay on SW620 cells (KRAS G12V).

Turning to `CCN(c1nc(OC[C@@]23CCCN2C[C@H](F)C3)nc2c(F)c(-c3ccc(F)c4sc(N)c(C#N)c34)c(C(F)(F)F)cc12)[C@H]1CCN(C(=O)c2ccc(C#N)s2)C1` (atropisomer, axis not shown) [Compound 952], the negative-log IC50 (pIC50) was over 7.00 with GP2d cells (KRAS G12D); 6.00 to 7.00 in assay [1]; 6.00 to 7.00 in assay [2]; 6.00 to 7.00 in assay [3]; 5.00 to 6.00 in assay [4]; over 7.00 in the assay on SW620 cells (KRAS G12V).

For `CCN(c1nc(OC[C@@]23CCCN2C[C@H](F)C3)nc2c(F)c(-c3ccc(F)c4sc(N)c(C#N)c34)c(C(F)(F)F)cc12)[C@H]1CCN(C(=O)c2ncc(Cl)s2)C1` (atropisomer, axis not shown) [Compound 939], the pIC50 with GP2d cells (KRAS G12D) was over 7.00; in assay [1], 6.00 to 7.00; in assay [2], 5.00 to 6.00; in assay [3] it was 5.00 to 6.00; in assay [4], 5.00 to 6.00; in the assay on SW620 cells (KRAS G12V), over 7.00.

Consider `CCN(c1nc(OC[C@@]23CCCN2C[C@H](F)C3)nc2c(F)c(-c3ccc(F)c4sc(N)c(C#N)c34)c(C(F)(F)F)cc12)[C@H]1C[C@@H](C)N(C(=O)C2CC2(F)F)C1` (stereo partly drawn) [Compound 877], for which the pIC50 was over 7.00 in the assay with GP2d cells (KRAS G12D); 6.00 to 7.00 in assay [1]; 5.00 to 6.00 in assay [2]; 5.00 to 6.00 in assay [3]; 5.00 to 6.00 in assay [4]; over 7.00 with SW620 cells (KRAS G12V).

Consider `CN(CC1COC1)c1nc(OC[C@@]23CCCN2C[C@H](F)C3)nc2c(F)c(-c3ccc(F)c4sc(N)c(C#N)c34)c(C(F)(F)F)cc12` (atropisomer, axis not shown) [Compound 963], for which the pIC50 in the assay with GP2d cells (KRAS G12D) is under 6.00; in assay [1], 5.00 to 6.00; in assay [2], under 5.00; in assay [3], under 5.00; in assay [4] it was 5.00 to 6.00; in the assay with SW620 cells (KRAS G12V) it was under 6.00.

`CCN(c1nc(OC[C@@]23CCCN2C[C@H](F)C3)nc2c(F)c(-c3ccc(F)c4sc(N)c(C#N)c34)c(C(F)(F)F)cc12)[C@H]1CCN(C(=O)c2cocn2)[C@@H]1C` (atropisomer, axis not shown) [Compound 900]: the negative logarithm of the IC50 (pIC50) in the assay with GP2d cells (KRAS G12D) is over 7.00; in assay [1], 6.00 to 7.00; in assay [2], 6.00 to 7.00; in assay [3], 6.00 to 7.00; in assay [4], 6.00 to 7.00; with SW620 cells (KRAS G12V), over 7.00.

For the compound `CCN(c1nc(OC[C@@]23CCCN2C[C@H](F)C3)nc2c(F)c(-c3ccc(F)c4sc(N)c(C#N)c34)c(C(F)(F)F)cc12)[C@H]1C[C@H](COC)N(C(=O)N2CC(F)C2)C1` [Compound 875], the negative logarithm of the IC50 (pIC50) in the assay on GP2d cells (KRAS G12D) was over 7.00; in assay [1], 5.00 to 6.00; in assay [2], 6.00 to 7.00; in assay [3] it was 6.00 to 7.00; in assay [4], 5.00 to 6.00; in the assay on SW620 cells (KRAS G12V), over 7.00.

In the case of `CCN(c1nc(OC[C@@]23CCCN2C[C@H](F)C3)nc2c(F)c(-c3ccc(F)c4sc(N)c(C#N)c34)c(C(F)(F)F)cc12)[C@H]1CCN(C(=O)[C@H]2C[C@H](F)C2)C1` (atropisomer, axis not shown) [Compound 846], the negative logarithm of the IC50 (pIC50) in the assay with GP2d cells (KRAS G12D) was over 7.00; in assay [1] it was 6.00 to 7.00; in assay [2], 6.00 to 7.00; in assay [3], 6.00 to 7.00; in assay [4], 6.00 to 7.00; in the assay with SW620 cells (KRAS G12V) it was over 7.00.

On to `N#Cc1c(N)sc2c(F)ccc(-c3c(C(F)(F)F)cc4c(N5CCc6ccncc6C5)nc(OC[C@@]56CCCN5C[C@H](F)C6)nc4c3F)c12` [Compound 942], for which the negative logarithm of the IC50 (pIC50) is over 7.00 in the assay with GP2d cells (KRAS G12D); under 5.00 in assay [1]; under 5.00 in assay [2]; under 5.00 in assay [3]; under 5.00 in assay [4]; 6.00 to 7.00 in the assay on SW620 cells (KRAS G12V).

`CCN(c1nc(OC[C@@]23CCCN2C[C@H](F)C3)nc2c(F)c(-c3ccc(F)c4sc(N)c(C#N)c34)c(C(F)(F)F)cc12)[C@H]1C[C@H](COC)N(C(=O)C2C[C@@H]2F)C1` (stereo partly drawn) [Compound 870]: the pIC50 in the assay with GP2d cells (KRAS G12D) was over 7.00; in assay [1] it was 6.00 to 7.00; in assay [2], 6.00 to 7.00; in assay [3], 6.00 to 7.00; in assay [4], 6.00 to 7.00; with SW620 cells (KRAS G12V) it was over 7.00.

For the compound `CCN(c1nc(OC[C@@]23CCCN2C[C@H](F)C3)nc2c(F)c(-c3ccc(F)c4sc(N)c(C#N)c34)c(C(F)(F)F)cc12)[C@H]1C[C@H]2CN(CC(F)(F)F)C(=O)N2C1` (atropisomer, axis not shown) [Compound 951], the pIC50 was over 7.00 in the assay with GP2d cells (KRAS G12D); 6.00 to 7.00 in assay [1]; 6.00 to 7.00 in assay [2]; 6.00 to 7.00 in assay [3]; 6.00 to 7.00 in assay [4]; over 7.00 in the assay on SW620 cells (KRAS G12V).

For `CCN(c1nc(OC[C@@]23CCCN2C[C@H](F)C3)nc2c(F)c(-c3ccc(F)c4sc(N)c(C#N)c34)c(C(F)(F)F)cc12)[C@H]1CCN(C(=O)c2ncc(C)s2)C1` (atropisomer, axis not shown) [Compound 919], the pIC50 in the assay on GP2d cells (KRAS G12D) is over 7.00; in assay [1], 6.00 to 7.00; in assay [2] it was 6.00 to 7.00; in assay [3] it was 6.00 to 7.00; in assay [4], 6.00 to 7.00; with SW620 cells (KRAS G12V), over 7.00.

`CCN(c1nc(OC[C@@]23CCCN2C[C@H](F)C3)nc2c(F)c(-c3ccc(F)c4sc(N)c(C#N)c34)c(C(F)(F)F)cc12)[C@H]1C[C@H](C)N(C(=O)c2coc(C)n2)C1` (atropisomer, axis not shown) [Compound 915]: the pIC50 in the assay with GP2d cells (KRAS G12D) is over 7.00; in assay [1] it was at least 7.00; in assay [2] it was 6.00 to 7.00; in assay [3] it was at least 7.00; in assay [4], 6.00 to 7.00; with SW620 cells (KRAS G12V), over 7.00.

Regarding `CCN(c1nc(OC[C@@]23CCCN2C[C@H](F)C3)nc2c(F)c(-c3ccc(F)c4sc(N)c(C#N)c34)c(C(F)(F)F)cc12)[C@H]1CCCOC1` (atropisomer, axis not shown) [Compound 965], the negative-log IC50 (pIC50) with GP2d cells (KRAS G12D) was over 7.00; in assay [1] it was 6.00 to 7.00; in assay [2], 6.00 to 7.00; in assay [3], 6.00 to 7.00; in assay [4], 6.00 to 7.00; with SW620 cells (KRAS G12V), over 7.00.

Consider `CCN(c1nc(OC[C@]23CCCN2C[C@H](F)C3)nc2c(F)c(-c3ccc(F)c4sc(N)c(C#N)c34)c(C(F)(F)F)cc12)[C@H]1CCN(C(=O)OC)C1` (atropisomer, axis not shown) [Compound 954], for which the negative-log IC50 (pIC50) was over 7.00 in the assay with GP2d cells (KRAS G12D); at least 7.00 in assay [1]; 6.00 to 7.00 in assay [2]; 6.00 to 7.00 in assay [3]; 6.00 to 7.00 in assay [4]; over 7.00 in the assay with SW620 cells (KRAS G12V).

Consider `CCN(c1nc(OC[C@@]23CCCN2C[C@H](F)C3)nc2c(F)c(-c3ccc(F)c4sc(N)c(C#N)c34)c(C(F)(F)F)cc12)[C@H]1C[C@H](COC)N(C(=O)[C@@H]2CCO2)C1` (atropisomer, axis not shown) [Compound 853], for which the negative-log IC50 (pIC50) is over 7.00 in the assay on GP2d cells (KRAS G12D); 6.00 to 7.00 in assay [1]; 6.00 to 7.00 in assay [2]; 6.00 to 7.00 in assay [3]; 6.00 to 7.00 in assay [4]; over 7.00 in the assay on SW620 cells (KRAS G12V).

As to `CCN(c1nc(OC[C@@]23CCCN2C[C@H](F)C3)nc2c(F)c(-c3ccc(F)c4sc(N)c(C#N)c34)c(C(F)(F)F)cc12)[C@H]1CCN(C(=O)[C@@H]2C[C@@H]2F)[C@@H]1C` (atropisomer, axis not shown) [Compound 889], the negative logarithm of the IC50 (pIC50) with GP2d cells (KRAS G12D) was over 7.00; in assay [1], 6.00 to 7.00; in assay [2] it was 6.00 to 7.00; in assay [3], 6.00 to 7.00; in assay [4], 6.00 to 7.00; in the assay with SW620 cells (KRAS G12V), over 7.00.

With `CCN(c1nc(OC[C@@]23CCCN2C[C@H](F)C3)nc2c(F)c(-c3ccc(F)c4sc(N)c(C#N)c34)c(C(F)(F)F)cc12)[C@H]1C[C@H]2CN(C3COC3)C(=O)N2C1` (atropisomer, axis not shown) [Compound 958], the pIC50 in the assay on GP2d cells (KRAS G12D) is over 7.00; in assay [1], 6.00 to 7.00; in assay [2], 6.00 to 7.00; in assay [3], 6.00 to 7.00; in assay [4], 6.00 to 7.00; in the assay on SW620 cells (KRAS G12V), over 7.00.
